According to ChEMBL document CHEMBL3763094, “Synthesis of 2-arylfuro[3,2-b]pyridines: Effect of the C2-aryl group on melatoninergic activity” (Eur J Med Chem, 2016):
Active and inactive are the calls of the source. The calls are words filed in the database; no cut-off is given here.

Legend:
[1] = molecular target: T1, Melatonin receptor type 1A (Homo sapiens, UniProt P48039); assay: Displacement of [125I]2-Iodomelatonin from human MT1 receptor expressed in HEK293 cells after 120 mins by radioligand competition assay; format: cell-based
[2] = molecular target: T2, Melatonin receptor type 1B (Homo sapiens, UniProt P49286); assay: Displacement of [125I]2-Iodomelatonin from human MT2 receptor expressed in HEK293 cells after 120 mins by radioligand competition assay; format: cell-based
T2 sequence (P49286 whole entry): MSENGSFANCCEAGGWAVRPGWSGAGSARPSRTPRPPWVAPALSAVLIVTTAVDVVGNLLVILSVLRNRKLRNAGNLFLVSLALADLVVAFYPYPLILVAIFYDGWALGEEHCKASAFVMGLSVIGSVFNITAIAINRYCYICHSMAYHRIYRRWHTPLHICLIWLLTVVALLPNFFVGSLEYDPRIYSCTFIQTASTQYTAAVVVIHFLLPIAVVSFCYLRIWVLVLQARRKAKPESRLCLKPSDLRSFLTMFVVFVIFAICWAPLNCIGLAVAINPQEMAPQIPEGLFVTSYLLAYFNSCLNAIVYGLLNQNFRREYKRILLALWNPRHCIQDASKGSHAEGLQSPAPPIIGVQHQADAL

[3] = species on record: Homo sapiens; assay: Selectivity ratio of Ki for human MT1 receptor to Ki for human MT2 receptor
[4] = molecular target: T1, Melatonin receptor type 1A; assay: Antagonist activity at MT1 receptor (unknown origin) expressed in CHO cells assessed as inhibition of melatonin-induced response for 30 mins by [35S]GTPgammaS binding assay; format: functional, cell-based
[5] = molecular target: T3, Melatonin receptor type 1B (Homo sapiens) (UniProt P49286); assay: Partial agonist activity at MT2 receptor (unknown origin) expressed in CHO cells incubated for 1 hr by [35S]GTPgammaS binding assay; format: functional, cell-based
T3 sequence (whole entry): T2 sequence (P49286 whole entry)

[6] = molecular target: T3, Melatonin receptor type 1B (Homo sapiens); assay: Antagonist activity at MT2 receptor (unknown origin) expressed in CHO cells assessed as inhibition of melatonin-induced response for 30 mins by [35S]GTPgammaS binding assay; format: functional, cell-based
[7] = molecular target: T1, Melatonin receptor type 1A; assay: Partial agonist activity at MT1 receptor (unknown origin) expressed in CHO cells incubated for 1 hr by [35S]GTPgammaS binding assay; format: functional, cell-based
[8] = molecular target: T1, Melatonin receptor type 1A; assay: Agonist activity at MT1 receptor (unknown origin) expressed in CHO cells incubated for 1 hr by [35S]GTPgammaS binding assay; format: functional, cell-based
[9] = molecular target: T3, Melatonin receptor type 1B (Homo sapiens); assay: Agonist activity at MT2 receptor (unknown origin) expressed in CHO cells incubated for 1 hr by [35S]GTPgammaS binding assay; format: functional, cell-based

T1 sequence (P48039 whole entry): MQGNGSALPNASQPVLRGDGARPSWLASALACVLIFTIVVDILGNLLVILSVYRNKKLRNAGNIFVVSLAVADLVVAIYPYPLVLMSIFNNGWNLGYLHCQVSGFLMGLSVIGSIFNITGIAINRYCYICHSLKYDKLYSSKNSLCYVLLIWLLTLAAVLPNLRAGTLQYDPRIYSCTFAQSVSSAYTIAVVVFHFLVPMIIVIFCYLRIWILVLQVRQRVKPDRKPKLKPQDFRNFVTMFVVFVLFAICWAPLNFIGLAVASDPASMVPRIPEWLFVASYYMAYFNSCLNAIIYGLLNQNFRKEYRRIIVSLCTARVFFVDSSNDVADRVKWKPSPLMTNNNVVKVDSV

Ki [1] [nM] | Ki [2] [nM] | Ratio Ki [3] | Activity [4] | Activity [5] | Activity [6] | Activity [7] | Activity [8] | Activity [9] | SMILES
73 | 59 | 1.2 | – | – | – | – | – | – | COc1cc2c(CCNC(C)=O)coc2cn1
120 | 9 | 13.3 | Active | Active | – | – | – | – | COc1ccc2oc(-c3c(C)cccc3C)c(CCNC(C)=O)c2n1
31 | 5 | 6.2 | – | – | Active | Active | – | – | COc1ccc2oc(-c3c4ccccc4cc4ccccc34)c(CCNC(C)=O)c2n1
0.2 | 0.03 | 6.7 | – | – | – | – | Active | Active | COc1ccc2oc(-c3ccc(F)cc3)c(CCNC(C)=O)c2n1
– | – | 790 | – | – | – | – | – | – | CCC(=O)NCCCc1cc(OC)ccc1OCc1cccc(OC)c1
2.2 | 0.09 | 22.2 | – | – | Active | – | Active | – | COc1ccc2oc(-c3ccc4ccccc4c3)c(CCNC(C)=O)c2n1
68 | 5 | 13.6 | – | – | Active | Active | – | – | COc1ccc2oc(-c3cc4ccccc4c4ccccc34)c(CCNC(C)=O)c2n1
9.5 | 35 | 0.3 | – | – | – | – | – | – | COc1cc2c(CCNC(C)=O)c[nH]c2cn1
1.6 | 1.2 | 1.5 | – | – | – | – | Active | Active | COc1ccc2occ(CCNC(C)=O)c2n1
– | – | 0.7 | – | – | – | – | – | – | COc1ccc2[nH]cc(CCNC(C)=O)c2n1
0.04 | 0.14 | 0.3 | – | – | – | – | Active | Active | COc1ccc2oc(-c3ccccc3)c(CCNC(C)=O)c2n1
0.2 | 0.08 | 2.5 | – | – | – | – | Active | Active | COc1ccc2oc(I)c(CCNC(C)=O)c2n1
198 | 1.3 | 152 | Active | – | Active | – | – | – | COc1ccc2oc(-c3cccc4ccccc34)c(CCNC(C)=O)c2n1
